Results as given in PubChem BioAssay (NCI).
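Dose response: 5 concentrations. Exposure: 48 h. Format: 96-well plates. Endpoint: linear interpolation; highest concentration if not reached. GI50 = concentration required for 50% inhibition of growth. Definition used: TGI = concentration required for complete inhibition of growth.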

What was measured:
Assay in all cases: NCI anticancer screen, dose series, 48 h
KM12 colon = tested on: KM12 colon
A549 NSCLC = tested on: A549 NSCLC
BT-549 breast = tested on: BT-549 breast
UACC-257 melanoma = tested on: UACC-257 melanoma
SR leukemia = tested on: SR leukemia
EKVX NSCLC = tested on: EKVX NSCLC
OVCAR-4 ovarian = tested on: OVCAR-4 ovarian
UACC-62 melanoma = tested on: UACC-62 melanoma
SNB-19 CNS = tested on: SNB-19 CNS
HCT-15 colon = tested on: HCT-15 colon
CCRF-CEM leukemia = tested on: CCRF-CEM leukemia
SN12C renal = tested on: SN12C renal
HT29 colon = tested on: HT29 colon
MOLT-4 leukemia = tested on: MOLT-4 leukemia
786-0 renal = tested on: 786-0 renal
OVCAR-3 ovarian = tested on: OVCAR-3 ovarian
COLO 205 colon = tested on: COLO 205 colon
NCI-H226 lung = tested on: NCI-H226 lung
MDA-MB-435 = tested on: MDA-MB-435
A498 renal = tested on: A498 renal
RXF 393 renal = tested on: RXF 393 renal
OVCAR-8 ovarian = tested on: OVCAR-8 ovarian
SF-539 CNS = tested on: SF-539 CNS
K-562 leukemia = tested on: K-562 leukemia
SW-620 colon = tested on: SW-620 colon
PC-3 prostate = tested on: PC-3 prostate
M14 melanoma = tested on: M14 melanoma
HCT-116 colon = tested on: HCT-116 colon
HOP-92 NSCLC = tested on: HOP-92 NSCLC
TK-10 renal = tested on: TK-10 renal
DU-145 prostate = tested on: DU-145 prostate
NCI-H460 lung = tested on: NCI-H460 lung
SF-295 CNS = tested on: SF-295 CNS
SK-MEL-28 melanoma = tested on: SK-MEL-28 melanoma
HCC-2998 colon = tested on: HCC-2998 colon
HL-60(TB) leukemia = tested on: HL-60(TB) leukemia
ACHN renal = tested on: ACHN renal
NCI/ADR-RES ovarian = tested on: NCI/ADR-RES ovarian
HS 578T breast = tested on: HS 578T breast
OVCAR-5 ovarian = tested on: OVCAR-5 ovarian
IGROV1 ovarian = tested on: IGROV1 ovarian
NCI-H522 lung = tested on: NCI-H522 lung
CAKI-1 renal = tested on: CAKI-1 renal
MCF7 breast = tested on: MCF7 breast
U251 CNS = tested on: U251 CNS
RPMI-8226 leukemia = tested on: RPMI-8226 leukemia
HOP-62 NSCLC = tested on: HOP-62 NSCLC
SF-268 CNS = tested on: SF-268 CNS
SK-MEL-5 melanoma = tested on: SK-MEL-5 melanoma
NCI-H23 lung = tested on: NCI-H23 lung
T-47D breast = tested on: T-47D breast
MALME-3M melanoma = tested on: MALME-3M melanoma
LOX IMVI melanoma = tested on: LOX IMVI melanoma
SK-OV-3 ovarian = tested on: SK-OV-3 ovarian
MDA-MB-468 breast = tested on: MDA-MB-468 breast

## C[C@H]1[C@@H](CC(=O)N[C@@H](Cc2coc3ccccc23)B(O)O)O[C@@H]2OC3(C)CC[C@H]4[C@H](C)CC[C@@H]1[C@@]24O3
KM12 colon
  GI50: 3.42 µM
  TGI: 11.6 µM
A549 NSCLC
  GI50: 3.66 µM
  TGI: 18.7 µM
BT-549 breast
  GI50: 1640 nM
  TGI: 4.2 µM
UACC-257 melanoma
  GI50: 1850 nM
  TGI: 4.19 µM
SR leukemia
  GI50: 1480 nM
  TGI: 5.16 µM
EKVX NSCLC
  GI50: 5.01 µM
  TGI: 23.6 µM
OVCAR-4 ovarian
  GI50: 6.09 µM
  TGI: > 100 µM
UACC-62 melanoma
  GI50: 1890 nM
  TGI: 4.26 µM
SNB-19 CNS
  GI50: 6.28 µM
  TGI: > 100 µM
HCT-15 colon
  GI50: 2220 nM
  TGI: 5.88 µM
CCRF-CEM leukemia
  GI50: 2450 nM
  TGI: 12.2 µM
SN12C renal
  GI50: 4.07 µM
  TGI: 15.9 µM
HT29 colon
  GI50: 2270 nM
  TGI: 5.36 µM
MOLT-4 leukemia
  GI50: 1480 nM
  TGI: 6.61 µM
786-0 renal
  GI50: 4.24 µM
  TGI: 19.2 µM
OVCAR-3 ovarian
  GI50: 3.07 µM
  TGI: 11.1 µM
COLO 205 colon
  GI50: 3.07 µM
  TGI: 12.2 µM
NCI-H226 lung
  GI50: 1300 nM
  TGI: 2840 nM
MDA-MB-435
  GI50: 2060 nM
  TGI: 5.03 µM
A498 renal
  GI50: 4.45 µM
  TGI: 16.6 µM
RXF 393 renal
  GI50: 1530 nM
  TGI: 3.47 µM
OVCAR-8 ovarian
  GI50: 9.53 µM
  TGI: 24.7 µM
SF-539 CNS
  GI50: 1920 nM
  TGI: 4.05 µM
K-562 leukemia
  GI50: 3.25 µM
  TGI: 22.9 µM
SW-620 colon
  GI50: 2690 nM
  TGI: 11.5 µM
PC-3 prostate
  GI50: 5.47 µM
  TGI: 40.1 µM
M14 melanoma
  GI50: 2100 nM
  TGI: 5.96 µM
HCT-116 colon
  GI50: 2190 nM
  TGI: 5.56 µM
HOP-92 NSCLC
  GI50: 3.88 µM
  TGI: 15.4 µM
TK-10 renal
  GI50: 2710 nM
  TGI: 8.86 µM
DU-145 prostate
  GI50: 8.58 µM
  TGI: 51.6 µM
NCI-H460 lung
  GI50: 3.89 µM
  TGI: 15.2 µM
SF-295 CNS
  GI50: 1920 nM
  TGI: 6.27 µM
SK-MEL-28 melanoma
  GI50: 2920 nM
  TGI: 11.5 µM
HCC-2998 colon
  GI50: 2220 nM
  TGI: 4.45 µM
HL-60(TB) leukemia
  GI50: 2250 nM
  TGI: 6.84 µM
ACHN renal
  GI50: 3.08 µM
  TGI: > 100 µM
NCI/ADR-RES ovarian
  GI50: 11.6 µM
  TGI: 26.3 µM
HS 578T breast
  GI50: 2560 nM
  TGI: 9.97 µM
OVCAR-5 ovarian
  GI50: 2920 nM
  TGI: 13.7 µM
IGROV1 ovarian
  GI50: 4.03 µM
  TGI: 18.9 µM
NCI-H522 lung
  GI50: 1820 nM
  TGI: 4.26 µM
CAKI-1 renal
  GI50: 4.2 µM
  TGI: 23.7 µM
MCF7 breast
  GI50: 3.49 µM
  TGI: 18.5 µM
U251 CNS
  GI50: 3.78 µM
  TGI: 15.4 µM
RPMI-8226 leukemia
  GI50: 1230 nM
  TGI: 5.65 µM
HOP-62 NSCLC
  GI50: 2800 nM
  TGI: 12.3 µM
SF-268 CNS
  GI50: 4.67 µM
  TGI: > 100 µM
SK-MEL-5 melanoma
  GI50: 2290 nM
  TGI: 5.48 µM
NCI-H23 lung
  GI50: 3.16 µM
  TGI: 14.6 µM
T-47D breast
  GI50: 3.3 µM
  TGI: 16.5 µM
MALME-3M melanoma
  GI50: 1880 nM
  TGI: 6.77 µM
LOX IMVI melanoma
  GI50: 1830 nM
  TGI: 4.34 µM
SK-OV-3 ovarian
  GI50: 5.37 µM
  TGI: 19.2 µM
MDA-MB-468 breast
  GI50: 1930 nM
  TGI: 4.49 µM
